According to patent US12220466B2, “Pharmaceutical formulation” (Cutting Edge Technology, LLC, priority 2016, dated 2025):

Experiments:
[1] = system: pocket epithelium; settings: cited from earlier work
[2] = system: gram-negative anaerobes and spirochetes; settings: cited from earlier work
[3] = system: pocket epithelium; settings: monkey, in vivo; cited from earlier work
[4] = system: spirochetes and motile rods in subgingival plaques; settings: up to 12 weeks; cited from earlier work
[5] = system: periodontitis; experiment: Extensive in vivo administration of viscous tetracycline and 10% carbamide peroxide gel with mechanical debridement (Phase I-III)
Procedure: Each of the subjects had up to 6 or more recorded pocket sites, which can have up to 32 teeth and other parameters of periodontal disease recordings as well as health recordings in their patient records.
During Phase I treatments of periodontitis, a gel solution including 10% carbamide peroxide was applied directly to the periodontal pocket and pocket areas immediately followed by or preceded by 30-600 mg or more of pure topical tetracycline in powder or paste form, also applied directly to the pocket and pocket treatment areas together with the gel solution. The gel solution and the tetracycline were also applied to teeth directly. Tetracycline was added at intervals throughout the treatment. Treatment was performed on pockets from 3 mm up to 10 mm and more.
When pocket tissue was swollen, the 10% carbamide peroxide penetrated the deep pocket under the gum. The 10% carbamide peroxide was in the form of a viscous gel and was applied to the wound site or pocket using a periodontal probe, for example, or using a curet or scaler. For example, one or two drops from a squeeze-bottle applicator was applied to the end of end of a curette tip or scaler or was applied with a periodontal pocket measuring probe. The peroxide gel was also applied under artificial teeth and implants, for example under restorative bridges such as pontic areas, whether with implants or natural teeth. […]

Structure (SMILES)	time to restoration of epithelial lining ([1]; in vivo) [days]	removal of pocket epithelium (histological) ([1]; one minute application, neutralization, six curette strokes)	duration of the decrease ([2]; in vivo) [days]	number of gram-negative anaerobes and spirochetes ([2]; patients under 18 years, no scaling and root planing)	time to nearly complete healing without irreparable damage [3] [days]	time to reformation of epithelial lining [3] [days]	time to removal of most of the necrotic layer [3] [h]	percentages of spirochetes and motile rods versus scaling and root planing alone [4]	in office patient complaints ([5]; in vivo)	allergic reaction with topical use ([5]; patient population)
OCl [sodium hypochlorite]	7	complete removal of pocket epithelium with normal healing	30 to 90	significant decrease	11	3	16	no difference at any time between therapies	–	–
CN(C)[C@@H]1C(O)=C(C(N)=O)C(=O)[C@@]2(O)C(O)=C3C(=O)c4c(O)cccc4[C@@](C)(O)[C@H]3C[C@@H]12 [tetracycline]	–	–	–	–	–	–	–	–	to taste, not pain	No true allergic reaction
